Results reported in paper PMC10989010, “A panel of janus kinase inhibitors identified with anti-inflammatory effects protect mice from lethal influenza virus infection” (Antimicrobial Agents and Chemotherapy, 2024).
Where a name gives a salt, the structure may show the parent alone.

Tests used:
[1] = tested on: neutrophils and macrophages; test: Flow cytometry of BALF cells of infected mice; type: in vivo; conditions: 20 mg/kg/d, day 7 p.i.
Procedure: The mouse was euthanized and affixed onto a surgical plate, followed by disinfection of the neck using 70% ethanol. An incision was made on the neck skin using scissors to expose the trachea. Subsequently, a 0.2 cm incision was created on the trachea with surgical scissors, and a gavage needle was carefully inserted into it. The trachea was tied around the needle using cotton thread to secure the needle in place. Then, sterile PBS solution loaded in a 1 mL syringe was gently injected into the lung. The thorax of the mouse was massaged to facilitate even distribution of the solution before careful aspiration. Following the removal of the syringe from the needle, lavage fluid obtained from this process was transferred to an ice-cooled 1.5 mL tube for further processing or stored at −80℃ for subsequent analysis. Finally, resuspension and staining of cell pellet obtained after centrifugation of lavage fluid for 10 minutes at 1,000 × g and 4℃ were performed for subsequent analysis using flow cytometry ([45]).
BALF samples were washed with FACS (fluorescence-activated cell sorting) buffer (2% BSA in PBS), followed by red blood cell lysis using Red Cell Lysis Buffer (Tiangen, Beijing, China). For the surface staining, cells were stained with the following fluorochrome-labeled antibodies (Biolegend, San Diego, USA): PE-Cy7-conjugated Ly6C (clone HK1.4, dilution 1:200), PE-conjugated CD11b (clone M1/70, dilution 1: 200), APC-conjugated Ly6G (clone 1A8, dilution 1: 200), and FITC-conjugated CD11c (clone N418, dilution 1: 100). Cells were washed with PBS twice and counterstained with 7AAD (Biolegend, San Diego, USA) to differentiate apoptotic and dead cells, then analyzed using a BD FACSVerse Cell Analyzer (BD, New Jersey, USA).

lung tissues = test: Lung tissues histopathology (HE staining) of infected mice; type: in vivo; conditions: 300 TCID50; 20 mg/kg/d; day 7 p.i.
Procedure: The H&E staining experiments were performed according to the previous report ([46]). Briefly, all the mouse lung tissues were fixed in 4% paraformaldehyde overnight, embedded in paraffin, and cut into 4 µm sections. The sections were stained with hematoxylin solution, treated with hematoxylin differentiation solution and hematoxylin Scott’s tap water bluing, and rinsed with tap water. The sections were dehydrated in 85% ethanol for 5 minutes, followed by 5 minutes in 95% ethanol, and stained with eosin dye for 5 minutes. After dehydration, all the sections were sealed with neutral gum. Each section was examined under the microscope. The slides were randomly read and reviewed for tissue damage, necrosis, and inflammatory cell infiltration.

MCP1 = test: cells; type: cell-based, human; conditions: Homo sapiens, U-937, 72 h, read-out: IC50 MCP1
IP-10 = test: cells; type: cell-based, human; conditions: Homo sapiens, U-937, 72 h, read-out: IC50 IP-10
IL-8 = test: U937 cell-based anti-inflammatory assay for influenza virus infection, IL-8 production (AlphaLISA); set-up: species or system human; conditions: Homo sapiens, U-937, 72 h, read-out: IC50 IL-8
Procedure: U937 cells were seeded in a 96-well culture plate at a density of 1.5 × 10^5 cells per well and incubated for 24 hours prior to virus infection. Subsequently, the cells in each well were infected with the PR8 virus at a multiplicity of infection of 0.05 and treated with serially diluted drugs or left untreated as a control. The drugs were serially diluted threefold, starting from an initial concentration of 200 µM down to 0.01 µM. […] Following this incubation, the supernatants were collected and subjected to AlphaLISA analysis to determine IL-8, IP-10, and MCP1 protein levels.
The AlphaLISA detection kits employed in this study were IL-8 (PerkinElmer AL224), IP-10 (PerkinElmer AL259), and MCP1 (PerkinElmer, AL244). U937 cell culture supernatants were measured for IL-8, IP-10, and MCP-1 protein levels using AlphaLISA assay as per the manufacturer’s recommendations. The ELISA and AlphaLISA plates were read using the Varioskan LUX multimode microplate reader (Thermo Scientiﬁc, Waltham, MA, USA).

[2] = tested on: influenza virus-specific IgG; test: Influenza virus-specific IgG in mouse serum (ELISA); type: in vivo, BALB/c mice; conditions: 50 TCID50 PR8, 20 mg/kg twice daily for 5 days from 3 dpi, versus untreated
Procedure: The PR8 virus was purified and inactivated using β-Propiolactone (CAS: 57–57-8, MCE) at a 1:3,000 (vol/vol) ratio. The inactivated PR8 virus (2 µg in each well) was then coated onto a 96-well ELISA plate (Corning, USA) and left overnight at 4℃. Afterward, the plate was washed three times and blocked with 5% skimmed milk for 1 hour at 37℃. The plate was washed again three times and then incubated with 100 µL of serial diluted sera at 37 ℃ for 2 hours. Next, the plate was washed three times and incubated with 100 µL of 1,000-fold diluted (horseradish peroxidase) HRP-conjugated affinipure goat ant-mouse IgG (H + L; SA00001-1, Proteintech) at 37℃ for 1 hour. After washing the plate four times, 100 µL of TMB (3, 3', 5, 5'-tetramethylbenzidine) substrate was added to each well until the solutions turned blue, and then 50 µL of 2M H2SO4 was added to stop the reaction. Finally, the absorbance was read at OD450 nm using the Varioskan LUX multimode microplate reader (Thermo Scientific, Waltham, MA, USA) ([47]).

[3] = tested on: TNF-α, RANTES, IP-10, IL-10, MIP-1α, IL-8, MCP-1, and IL-6; test: ELISA of pro-inflammatory cytokines and chemokines in BALF of infected mice; type: in vivo; conditions: 300 TCID50; 20 mg/kg/d; day 7 p.i.; versus placebo
Procedure: Mouse IL-10 (Cat. No. 431414), IL-6 (Cat. No. 431304), and TNF-α (Cat. No. 430901) ELISA kits were obtained from BioLegend (San Diego, USA). Mouse IL-8 (CME0008), MCP-1 (CME0046), and IP-10 (CME0051) ELISA kits were purchased from 4A Biotech (Beijing, China). Mouse CCL3/MIP-1α (EK261/2-96) ELISA kit was bought from Multi Sciences (Hangzhou, China). Mouse CCL5/RANTES (BSEM-048–96T) ELISA kit was obtained from Biosharp (Hefei, China). The ELISA was conducted by following the manufacturer’s instructions.

## CNS(=O)(=O)C[C@H]1CC[C@H](N(C)c2ncnc3[nH]ccc23)CC1 [Oclacitinib maleate]
[1]; BALF flow cytometry, versus placebo
  number of neutrophils and macrophages in the lungs: reduce the number of neutrophils and macrophages
[1]; Fig 4B, 300 TCID50
  Ly6G- (flow cytometry gate, BALF): 81.6
  Macrophage (flow cytometry gate, BALF): 8.05
  Neurophil (flow cytometry gate, BALF): 15.2
Lung tissues
  lung histopathology (HE staining): remained primarily intact, with fewer inflammatory cells present
MCP1
  IC50: 0.19 µM
IP-10
  IC50: 0.18 µM
IL-8
  IC50: 0.05 µM
[2]; 7 dpi
  serum influenza virus-specific IgG production: significantly suppressed
[2]; 14 and 21 dpi
  serum influenza virus-specific IgG production: slight suppression
[3]
  production of all eight cytokines and chemokines (TNF-α, RANTES, IP-10, IL-10, MIP-1α, IL-8, MCP-1, IL-6) in BALF: significantly reduced
